According to patent US20040018623A1, “Medium for preparing dedifferentiated cells” (priority 1999, published 2004):

Tests used:
isolated canine islets = assay: Islet-cystic (duct epithelial) transformation / transdifferentiation of isolated islets; assay type: cell-based; details: for cystic transformation, % of control: at 72 hours, islets pre-incubated prior to embedding in collagen, control = DMEM/F12-CT group; for ductal transformation in suspension with soluble matrix protein: islets in suspension in DMEM/F12-CT supplemented with soluble protein (50 μg/ml)
[1] = target: integrins (on isolated canine islet cells) (dog); assay: cell-based or functional assay

Row | Molecule | cystic transformation, % of control (isolated canine islets) | ductal transformation in suspension with soluble matrix protein (isolated canine islets) | further results
1 | GRGDSP [reference compound] | 57 % of control |  | islet cell transdifferentiation after prior incubation of freshly isolated islets with peptide (isolated canine islets; prior incubation of islets with the peptide): partially blocked
2 | GRGESP [control peptide, reference compound] |  |  | influence on the transformation process (isolated canine islets; islets pre-incubated with peptide (400 μg/ml) prior to embedding in collagen): little influence
3 | fibronectin | 50 % of control | failed to undergo ductal transformation | 
4 | laminin | 50 % of control | failed to undergo ductal transformation | 
5 | GRGDSP [RGD-motif containing GRGDSP peptide] |  |  | islet-cystic transformation at 72 hours, percent of the control DMEM/F12-CT group [1]: 57 % of control
